*1 amine or outer side, *2 acyl side, *3 side chain or, on linkers, in order; H or OH if unused. Where a SMILES comes first, the peptide text is derived from it. Bridges are numbered along the chain shown (N, C = ends). [ ]: non-standard residue; d: D form. The star is where a group is joined. hPhe(3-Cl-4-CF3) = N[C@@H](CCc1ccc(C(F)(F)F)c(Cl)c1)C(=O)O; NPrPhe(4-CF3) = CCCN[C@@H](Cc1ccc(C(F)(F)F)cc1)C(=O)O; X10 = CCCN([C@@H](Cc1ccc(F)cc1)C(=O)[*:2])[*:1]; X44 = CCCN([C@@H](Cc1ccccc1)C(=O)[*:2])[*:1]; NEtPhe(4-F) = CCN[C@@H](Cc1ccc(F)cc1)C(=O)O; NMePhe(4-F) = CN[C@@H](Cc1ccc(F)cc1)C(=O)O; NMeGly(cPent) = CN[C@H](C(=O)O)C1CCCC1; Pro(4,4-F2) = O=C(O)[C@@H]1CC(F)(F)CN1; NEtPhe = CCN[C@@H](Cc1ccccc1)C(=O)O; NMeF = CN[C@@H](Cc1ccccc1)C(=O)O; NMeD = CN[C@@H](CC(=O)O)C(=O)O; NMeL = CN[C@@H](CC(C)C)C(=O)O; NMeNva = CCC[C@H](NC)C(=O)O; NMeAbu = CC[C@H](NC)C(=O)O; Morpholide = C1CN(*)CCO1; NMeA = CN[C@@H](C)C(=O)O; Ac5c = NC1(C(=O)O)CCCC1; Aze = O=C(O)[C@@H]1CCN1; Ac4c = NC1(C(=O)O)CCC1; Sar = CNCC(=O)O
Legend:
[1] = target: GDP-bound NRAS wild-type protein (Homo sapiens, UniProt P01111); assay: Binding to NRAS by surface plasmon resonance (SPR), Single Cycle Kinetics; settings: KD ratio NRAS/KRAS, SPR
Chain of GDP-bound NRAS wild-type protein (P01111 whole entry): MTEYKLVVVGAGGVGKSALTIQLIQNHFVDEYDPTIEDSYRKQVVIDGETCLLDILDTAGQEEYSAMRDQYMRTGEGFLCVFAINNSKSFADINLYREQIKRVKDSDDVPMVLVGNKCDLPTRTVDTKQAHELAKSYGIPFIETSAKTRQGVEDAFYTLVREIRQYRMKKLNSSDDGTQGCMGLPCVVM

[2] = target: GDP-bound HRAS wild-type protein (Homo sapiens, UniProt P01112); assay: Binding to HRAS by surface plasmon resonance (SPR), Single Cycle Kinetics; settings: KD ratio HRAS/KRAS, SPR
Chain of GDP-bound HRAS wild-type protein (P01112 whole entry): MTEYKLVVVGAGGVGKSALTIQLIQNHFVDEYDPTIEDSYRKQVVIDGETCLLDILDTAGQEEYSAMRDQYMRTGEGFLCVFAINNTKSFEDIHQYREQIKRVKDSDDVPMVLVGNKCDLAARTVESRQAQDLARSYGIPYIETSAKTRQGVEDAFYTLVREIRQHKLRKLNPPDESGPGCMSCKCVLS

Structure (SMILES) | NRAS/KRAS (ratio of KD for GDP-bound NRAS wild-type to KD for KRAS) [1] | HRAS/KRAS (ratio of KD for GDP-bound HRAS wild-type to KD for KRAS) [2]
CCC[C@H]1C(=O)N[C@@H]([C@@H](C)CC)C(=O)N(C)[C@@H](C)C(=O)N2CC[C@H]2C(=O)N(CCC)[C@@H](Cc2ccc(C(F)(F)F)cc2)C(=O)N(C)CC(=O)N[C@@H](CCc2ccc(C(F)(F)F)c(Cl)c2)C(=O)N2CC(F)(F)C[C@H]2C(=O)NC2(CCCC2)C(=O)N(C)[C@@H](C2CCCC2)C(=O)N(C)[C@H](C(=O)N2CCOCC2)CC(=O)N1C [PP0205] ([NMeNva]I[NMeA][Aze][NPrPhe(4-CF3)][Sar][hPhe(3-Cl-4-CF3)][Pro(4,4-F2)][Ac5c][NMeGly(cPent)][NMeD]-Morpholide; lactam N-11) | C (A compound having a KD ratio of 0.1 or more and less than 3 is denoted as C) | C (A compound having a KD ratio of 0.1 or more and less than 3 is denoted as C)
CCCN1C(=O)[C@@H]2CCN2C(=O)[C@H](C)N(C)C(=O)[C@H]([C@@H](C)CC)NC(=O)[C@H](CC)N(C)C(=O)C[C@@H](C(=O)N2CCOCC2)N(C)C(=O)[C@H](C2CCCC2)N(C)C(=O)C2(CCCC2)NC(=O)[C@@H]2CC(F)(F)CN2C(=O)[C@H](CCc2ccc(C(F)(F)F)c(Cl)c2)NC(=O)CN(C)C(=O)[C@@H]1Cc1ccc(C(F)(F)F)cc1 [PP0206] ([NMeAbu]I[NMeA][Aze][NPrPhe(4-CF3)][Sar][hPhe(3-Cl-4-CF3)][Pro(4,4-F2)][Ac5c][NMeGly(cPent)][NMeD]-Morpholide; lactam N-11) | C (A compound having a KD ratio of 0.1 or more and less than 3 is denoted as C) | B (a compound having 3 or more and less than 10 is denoted as B)
CCCN1C(=O)CN(C)C(=O)CN(C)C(=O)[C@H]([C@@H](C)CC)NC(=O)[C@H](CC(C)C)N(C)C(=O)C[C@@H](C(=O)N2CCOCC2)N(C)C(=O)[C@H](C2CCCC2)N(C)C(=O)C2(CCC2)NC(=O)[C@@H]2CC(F)(F)CN2C(=O)[C@H](CCc2ccc(C(F)(F)F)c(Cl)c2)NC(=O)CN(C)C(=O)[C@@H]1Cc1ccc(C(F)(F)F)cc1 [PP0207] ([NMeL]I[Sar][Sar][NPrPhe(4-CF3)][Sar][hPhe(3-Cl-4-CF3)][Pro(4,4-F2)][Ac4c][NMeGly(cPent)][NMeD]-Morpholide; lactam N-11) | B (a compound having 3 or more and less than 10 is denoted as B) | C (A compound having a KD ratio of 0.1 or more and less than 3 is denoted as C)
CCCN1C(=O)[C@@H]2CCN2C(=O)[C@H](C)N(C)C(=O)[C@H]([C@@H](C)CC)NC(=O)[C@H](CC(C)C)N(C)C(=O)C[C@@H](C(=O)N2CCOCC2)N(C)C(=O)[C@H](C2CCCC2)N(C)C(=O)C2(CCC2)NC(=O)[C@@H]2CC(F)(F)CN2C(=O)[C@H](CCc2ccc(C(F)(F)F)c(Cl)c2)NC(=O)CN(C)C(=O)[C@@H]1Cc1ccc(C(F)(F)F)cc1 [PP0208] ([NMeL]I[NMeA][Aze][NPrPhe(4-CF3)][Sar][hPhe(3-Cl-4-CF3)][Pro(4,4-F2)][Ac4c][NMeGly(cPent)][NMeD]-Morpholide; lactam N-11) | C (A compound having a KD ratio of 0.1 or more and less than 3 is denoted as C) | C (A compound having a KD ratio of 0.1 or more and less than 3 is denoted as C)
CCCN1C(=O)[C@@H]2CCN2C(=O)[C@H](Cc2ccccc2)N(C)C(=O)[C@H]([C@@H](C)CC)NC(=O)[C@H](CC(C)C)N(C)C(=O)C[C@@H](C(=O)N2CCOCC2)N(C)C(=O)[C@H](C2CCCC2)N(C)C(=O)C2(CCCC2)NC(=O)[C@@H]2CCCN2C(=O)[C@H](CCc2ccc(C(F)(F)F)c(Cl)c2)NC(=O)CN(C)C(=O)[C@@H]1Cc1ccc(C(F)(F)F)cc1 [PP0209] ([NMeL]I[NMeF][Aze][NPrPhe(4-CF3)][Sar][hPhe(3-Cl-4-CF3)]P[Ac5c][NMeGly(cPent)][NMeD]-Morpholide; lactam N-11) | C (A compound having a KD ratio of 0.1 or more and less than 3 is denoted as C) | C (A compound having a KD ratio of 0.1 or more and less than 3 is denoted as C)
CC[C@H](C)[C@@H]1NC(=O)[C@H](CC(C)C)N(C)C(=O)C[C@@H](C(=O)N2CCOCC2)N(C)C(=O)[C@H](C2CCCC2)N(C)C(=O)C2(CCCC2)NC(=O)[C@@H]2CCCN2C(=O)[C@H](CCc2ccc(C(F)(F)F)c(Cl)c2)NC(=O)CN(C)C(=O)[C@H](Cc2ccccc2)N(CC)C(=O)CN(C)C(=O)CN(C)C1=O [PP0210] ([NMeL]I[Sar][Sar][NEtPhe][Sar][hPhe(3-Cl-4-CF3)]P[Ac5c][NMeGly(cPent)][NMeD]-Morpholide; lactam N-11) | C (A compound having a KD ratio of 0.1 or more and less than 3 is denoted as C) | C (A compound having a KD ratio of 0.1 or more and less than 3 is denoted as C)
CCCN1C(=O)CN(C)C(=O)CN(C)C(=O)[C@H]([C@@H](C)CC)NC(=O)[C@H](CC(C)C)N(C)C(=O)C[C@@H](C(=O)N2CCOCC2)N(C)C(=O)[C@H](C2CCCC2)N(C)C(=O)C2(CCCC2)NC(=O)[C@@H]2CCCN2C(=O)[C@H](CCc2ccc(C(F)(F)F)c(Cl)c2)NC(=O)CN(C)C(=O)[C@@H]1Cc1ccccc1 [PP0211] ([NMeL]I[Sar][Sar][X44][Sar][hPhe(3-Cl-4-CF3)]P[Ac5c][NMeGly(cPent)][NMeD]-Morpholide; lactam N-11) | B (a compound having 3 or more and less than 10 is denoted as B) | C (A compound having a KD ratio of 0.1 or more and less than 3 is denoted as C)
CC[C@H](C)[C@@H]1NC(=O)[C@H](CC(C)C)N(C)C(=O)C[C@@H](C(=O)N2CCOCC2)N(C)C(=O)[C@H](C2CCCC2)N(C)C(=O)C2(CCCC2)NC(=O)[C@@H]2CCCN2C(=O)[C@H](CCc2ccc(C(F)(F)F)c(Cl)c2)NC(=O)CN(C)C(=O)[C@H](Cc2ccc(F)cc2)N(C)C(=O)CN(C)C(=O)CN(C)C1=O [PP0212] ([NMeL]I[Sar][Sar][NMePhe(4-F)][Sar][hPhe(3-Cl-4-CF3)]P[Ac5c][NMeGly(cPent)][NMeD]-Morpholide; lactam N-11) | C (A compound having a KD ratio of 0.1 or more and less than 3 is denoted as C) | C (A compound having a KD ratio of 0.1 or more and less than 3 is denoted as C)
CC[C@H](C)[C@@H]1NC(=O)[C@H](CC(C)C)N(C)C(=O)C[C@@H](C(=O)N2CCOCC2)N(C)C(=O)[C@H](C2CCCC2)N(C)C(=O)C2(CCCC2)NC(=O)[C@@H]2CCCN2C(=O)[C@H](CCc2ccc(C(F)(F)F)c(Cl)c2)NC(=O)CN(C)C(=O)[C@H](Cc2ccc(F)cc2)N(CC)C(=O)CN(C)C(=O)CN(C)C1=O [PP0213] ([NMeL]I[Sar][Sar][NEtPhe(4-F)][Sar][hPhe(3-Cl-4-CF3)]P[Ac5c][NMeGly(cPent)][NMeD]-Morpholide; lactam N-11) | C (A compound having a KD ratio of 0.1 or more and less than 3 is denoted as C) | C (A compound having a KD ratio of 0.1 or more and less than 3 is denoted as C)
CCCN1C(=O)CN(C)C(=O)CN(C)C(=O)[C@H]([C@@H](C)CC)NC(=O)[C@H](CC(C)C)N(C)C(=O)C[C@@H](C(=O)N2CCOCC2)N(C)C(=O)[C@H](C2CCCC2)N(C)C(=O)C2(CCCC2)NC(=O)[C@@H]2CCCN2C(=O)[C@H](CCc2ccc(C(F)(F)F)c(Cl)c2)NC(=O)CN(C)C(=O)[C@@H]1Cc1ccc(F)cc1 [PP0214] ([NMeL]I[Sar][Sar][X10][Sar][hPhe(3-Cl-4-CF3)]P[Ac5c][NMeGly(cPent)][NMeD]-Morpholide; lactam N-11) | B (a compound having 3 or more and less than 10 is denoted as B) | C (A compound having a KD ratio of 0.1 or more and less than 3 is denoted as C)
CC[C@H](C)[C@@H]1NC(=O)[C@H](CC(C)C)N(C)C(=O)C[C@@H](C(=O)N2CCOCC2)N(C)C(=O)[C@H](C2CCCC2)N(C)C(=O)C2(CCCC2)NC(=O)[C@@H]2CCCN2C(=O)[C@H](CCc2ccc(C(F)(F)F)c(Cl)c2)NC(=O)CN(C)C(=O)[C@H](Cc2ccccc2)N(CC)C(=O)[C@@H]2CCN2C(=O)[C@H](C)N(C)C1=O [PP0215] ([NMeL]I[NMeA][Aze][NEtPhe][Sar][hPhe(3-Cl-4-CF3)]P[Ac5c][NMeGly(cPent)][NMeD]-Morpholide; lactam N-11) | C (A compound having a KD ratio of 0.1 or more and less than 3 is denoted as C) | C (A compound having a KD ratio of 0.1 or more and less than 3 is denoted as C)
CCCN1C(=O)[C@@H]2CCN2C(=O)[C@H](C)N(C)C(=O)[C@H]([C@@H](C)CC)NC(=O)[C@H](CC(C)C)N(C)C(=O)C[C@@H](C(=O)N2CCOCC2)N(C)C(=O)[C@H](C2CCCC2)N(C)C(=O)C2(CCCC2)NC(=O)[C@@H]2CCCN2C(=O)[C@H](CCc2ccc(C(F)(F)F)c(Cl)c2)NC(=O)CN(C)C(=O)[C@@H]1Cc1ccccc1 [PP0216] ([NMeL]I[NMeA][Aze][X44][Sar][hPhe(3-Cl-4-CF3)]P[Ac5c][NMeGly(cPent)][NMeD]-Morpholide; lactam N-11) | C (A compound having a KD ratio of 0.1 or more and less than 3 is denoted as C) | B (a compound having 3 or more and less than 10 is denoted as B)
CC[C@H](C)[C@@H]1NC(=O)[C@H](CC(C)C)N(C)C(=O)C[C@@H](C(=O)N2CCOCC2)N(C)C(=O)[C@H](C2CCCC2)N(C)C(=O)C2(CCCC2)NC(=O)[C@@H]2CCCN2C(=O)[C@H](CCc2ccc(C(F)(F)F)c(Cl)c2)NC(=O)CN(C)C(=O)[C@H](Cc2ccc(F)cc2)N(C)C(=O)[C@@H]2CCN2C(=O)[C@H](C)N(C)C1=O [PP0217] ([NMeL]I[NMeA][Aze][NMePhe(4-F)][Sar][hPhe(3-Cl-4-CF3)]P[Ac5c][NMeGly(cPent)][NMeD]-Morpholide; lactam N-11) | C (A compound having a KD ratio of 0.1 or more and less than 3 is denoted as C) | C (A compound having a KD ratio of 0.1 or more and less than 3 is denoted as C)
